From US20250304596A1, “PYRAZINE DERIVATIVES AND USES THEREOF” (FOGHORN THERAPEUTICS INC., priority 2022, published 2025)

What was measured:
HiBit-BRM fusion protein = target: T1, HiBit-BRM fusion protein (Homo sapiens, UniProt P51531); experiment: HiBiT-BRM cell-based degradation assay (Nano-Glo HiBiT Lytic Detection, 24 h); settings: stable HeLa cell line expressing HiBiT-BRM; for DC50: read-out: BRM HiBit Degradation IC50
T1 construct: expressed in transfected cells
In short: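 A stable HeLa line expressing HiBiT-BRM was treated for 24 h with compound in a 10-point, 3-fold series (30 μM final top dose). Remaining HiBiT-BRM was read by lytic LgBiT complementation luminescence. % degradation was normalised to DMSO (high control) and 2 μM reference BRM/BRG1 degrader (low control).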

[1] = target: T2, HiBit-BRG1 fusion protein (Homo sapiens, UniProt P51532); experiment: HiBiT-BRG1 cell-based degradation assay (Nano-Glo HiBiT Lytic Detection, 24 h); settings: stable HeLa cell line expressing HiBit-BRG1 and LgBit; for Dmax: read-out: BRG1 HiBit Degradation Maximum (%); for DC50: read-out: BRMG1 HiBit Degradation IC50
T2 construct: expressed in transfected cells
T2 sequence (P51532 whole entry, the tested form may be a part): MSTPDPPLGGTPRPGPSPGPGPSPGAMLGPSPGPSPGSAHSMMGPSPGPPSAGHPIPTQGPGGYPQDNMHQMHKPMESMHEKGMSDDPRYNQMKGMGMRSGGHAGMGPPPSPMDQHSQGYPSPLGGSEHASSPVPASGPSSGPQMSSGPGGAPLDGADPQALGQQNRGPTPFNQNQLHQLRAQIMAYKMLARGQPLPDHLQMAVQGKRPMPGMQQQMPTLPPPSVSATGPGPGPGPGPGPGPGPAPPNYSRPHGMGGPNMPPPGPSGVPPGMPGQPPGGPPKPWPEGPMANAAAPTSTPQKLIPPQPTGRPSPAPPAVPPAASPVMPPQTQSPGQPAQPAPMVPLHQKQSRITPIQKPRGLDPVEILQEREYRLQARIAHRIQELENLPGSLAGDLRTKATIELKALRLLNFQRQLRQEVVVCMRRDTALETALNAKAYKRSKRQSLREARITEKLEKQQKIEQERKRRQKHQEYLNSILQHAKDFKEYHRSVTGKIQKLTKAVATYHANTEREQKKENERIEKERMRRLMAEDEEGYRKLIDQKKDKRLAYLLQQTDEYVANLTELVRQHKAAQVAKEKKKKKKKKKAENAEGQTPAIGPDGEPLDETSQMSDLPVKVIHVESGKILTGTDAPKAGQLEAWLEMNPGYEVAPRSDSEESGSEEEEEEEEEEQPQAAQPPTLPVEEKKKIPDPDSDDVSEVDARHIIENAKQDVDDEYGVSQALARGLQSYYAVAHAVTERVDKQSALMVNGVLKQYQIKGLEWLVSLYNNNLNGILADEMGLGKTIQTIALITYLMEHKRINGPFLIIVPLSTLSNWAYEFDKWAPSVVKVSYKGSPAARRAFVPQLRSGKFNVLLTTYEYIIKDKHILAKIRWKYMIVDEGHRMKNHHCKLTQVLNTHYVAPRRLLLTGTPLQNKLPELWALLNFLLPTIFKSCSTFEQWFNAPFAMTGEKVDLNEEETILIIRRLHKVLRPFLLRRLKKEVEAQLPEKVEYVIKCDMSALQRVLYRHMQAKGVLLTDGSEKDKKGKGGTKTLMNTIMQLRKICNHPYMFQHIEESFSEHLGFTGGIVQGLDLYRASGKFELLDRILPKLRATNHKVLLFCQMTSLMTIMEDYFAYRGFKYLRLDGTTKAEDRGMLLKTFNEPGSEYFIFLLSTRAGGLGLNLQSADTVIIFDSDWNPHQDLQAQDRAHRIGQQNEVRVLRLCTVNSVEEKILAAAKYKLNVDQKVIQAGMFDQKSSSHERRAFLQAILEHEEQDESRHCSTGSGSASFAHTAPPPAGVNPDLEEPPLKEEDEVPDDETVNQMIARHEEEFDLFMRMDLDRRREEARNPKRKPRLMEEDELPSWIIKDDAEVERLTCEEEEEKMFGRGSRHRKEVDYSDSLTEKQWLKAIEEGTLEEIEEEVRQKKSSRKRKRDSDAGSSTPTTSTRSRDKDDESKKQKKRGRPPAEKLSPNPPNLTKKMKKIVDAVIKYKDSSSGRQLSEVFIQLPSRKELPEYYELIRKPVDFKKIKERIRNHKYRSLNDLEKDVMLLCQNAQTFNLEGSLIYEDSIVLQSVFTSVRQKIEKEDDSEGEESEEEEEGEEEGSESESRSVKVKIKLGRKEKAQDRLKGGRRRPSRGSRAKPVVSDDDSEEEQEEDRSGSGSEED
In short: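 HeLa cells stably expressing HiBit-BRG1 and LgBit, treated 24 h with 3-fold dilutions (10 points, duplicate, 30 μM final top dose). Luminescence read after Nano-Glo HiBiT lytic reagent; % degradation scaled between DMSO (high) and 2 μM reference BRM/BRG1 degrader (low control).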

T1 sequence (P51531 whole entry, the tested form may be a part): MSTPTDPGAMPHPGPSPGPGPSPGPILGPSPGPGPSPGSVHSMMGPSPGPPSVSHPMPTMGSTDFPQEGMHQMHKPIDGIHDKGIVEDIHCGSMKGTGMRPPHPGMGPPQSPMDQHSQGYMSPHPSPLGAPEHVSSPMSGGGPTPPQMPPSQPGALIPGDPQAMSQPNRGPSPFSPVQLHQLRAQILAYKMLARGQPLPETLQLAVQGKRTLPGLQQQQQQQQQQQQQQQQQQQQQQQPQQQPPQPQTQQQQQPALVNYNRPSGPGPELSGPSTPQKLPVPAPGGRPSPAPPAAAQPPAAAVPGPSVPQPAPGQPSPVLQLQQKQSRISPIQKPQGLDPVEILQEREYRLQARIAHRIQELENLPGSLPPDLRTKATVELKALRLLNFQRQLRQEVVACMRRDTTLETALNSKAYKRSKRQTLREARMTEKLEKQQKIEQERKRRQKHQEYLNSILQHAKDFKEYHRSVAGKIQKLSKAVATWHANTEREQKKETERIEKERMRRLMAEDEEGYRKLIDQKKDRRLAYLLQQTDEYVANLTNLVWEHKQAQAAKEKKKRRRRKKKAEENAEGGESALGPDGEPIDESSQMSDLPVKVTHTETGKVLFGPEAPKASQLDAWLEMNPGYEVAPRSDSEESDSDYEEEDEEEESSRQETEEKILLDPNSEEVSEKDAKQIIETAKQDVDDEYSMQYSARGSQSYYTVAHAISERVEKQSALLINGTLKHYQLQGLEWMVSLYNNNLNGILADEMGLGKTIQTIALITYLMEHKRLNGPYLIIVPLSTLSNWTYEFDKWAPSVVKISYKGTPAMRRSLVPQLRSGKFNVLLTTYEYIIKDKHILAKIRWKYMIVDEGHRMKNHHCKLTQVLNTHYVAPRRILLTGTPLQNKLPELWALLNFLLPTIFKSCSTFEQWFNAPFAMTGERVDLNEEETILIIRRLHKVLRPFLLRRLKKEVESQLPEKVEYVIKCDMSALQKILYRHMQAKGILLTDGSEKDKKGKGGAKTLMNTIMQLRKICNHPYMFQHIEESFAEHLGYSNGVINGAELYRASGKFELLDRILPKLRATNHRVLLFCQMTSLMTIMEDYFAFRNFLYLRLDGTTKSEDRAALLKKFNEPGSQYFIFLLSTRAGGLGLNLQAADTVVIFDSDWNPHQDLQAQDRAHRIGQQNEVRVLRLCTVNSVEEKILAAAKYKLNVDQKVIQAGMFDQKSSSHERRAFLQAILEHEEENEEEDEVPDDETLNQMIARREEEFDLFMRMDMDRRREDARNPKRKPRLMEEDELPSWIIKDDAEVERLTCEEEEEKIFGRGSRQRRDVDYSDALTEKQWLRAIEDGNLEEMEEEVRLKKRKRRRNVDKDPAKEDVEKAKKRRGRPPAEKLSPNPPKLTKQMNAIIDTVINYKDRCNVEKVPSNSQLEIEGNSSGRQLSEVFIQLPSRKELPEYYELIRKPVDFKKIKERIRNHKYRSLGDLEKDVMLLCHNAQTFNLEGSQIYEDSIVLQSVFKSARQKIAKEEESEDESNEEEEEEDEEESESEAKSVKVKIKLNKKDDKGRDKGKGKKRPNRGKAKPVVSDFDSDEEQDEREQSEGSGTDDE

DC50 (HiBit-BRM fusion protein) [nM]	Dmax [1] [%]	DC50 [1] [nM]	SMILES	BRM HiBit Degradation Maximum (%) (HiBit-BRM fusion protein)
< 10	< 50	> 1000	Cc1ncsc1-c1ccc([C@H](C)NC(=O)[C@@H]2C[C@@H](O)CN2C(=O)[C@@H](c2cc(-c3ccc(N4CCC(c5sc6nnc(-c7ccccc7O)cc6c5C)CC4)cc3F)no2)C(C)C)cc1 [Compound 4, (2S,4R)-1-((R)-2-(3-(2-fluoro-4-(4-(3-(2-hydroxyphenyl)-5-methylthieno[2,3-c]pyridazin-6-yl)piperidin-1-yl)phenyl)isoxazol-5-yl)-3-methylbutanoyl)-4-hydroxy-N-((S)-1-(4-(4-methylthiazol-5-yl)phenyl)ethyl)pyrrolidine-2-carboxamide]	A (“A” indicates maximum degradation ≥75%)
> 100	> 50	> 1000	Cc1ncsc1-c1ccc([C@H](C)NC(=O)[C@@H]2C[C@@H](O)CN2C(=O)[C@@H](c2cc(C#Cc3sc4nnc(-c5ccccc5O)cc4c3C)no2)C(C)C)cc1 (single isomer, unassigned) [Compound 37]	A (“A” indicates maximum degradation ≥75%)
> 10	< 50	> 1000	Cc1ncsc1-c1ccc([C@H](C)NC(=O)[C@@H]2C[C@@H](O)CN2C(=O)[C@@H](c2cc(-c3ccnc(N4CC[C@H](c5sc6nnc(-c7ccccc7O)cc6c5C)C4)n3)no2)C(C)C)cc1 [Compound 8, (2S,4R)-4-hydroxy-1-((R)-2-(3-(2-((S)-3-(3-(2-hydroxyphenyl)-5-methylthieno[2,3-c]pyridazin-6-yl)pyrrolidin-1-yl)pyrimidin-4-yl)isoxazol-5-yl)-3-methylbutanoyl)-N-((S)-1-(4-(4-methylthiazol-5-yl)phenyl)ethyl)pyrrolidine-2-carboxamide]	A (“A” indicates maximum degradation ≥75%)
> 10	< 50	> 1000	Cc1ncsc1-c1ccc([C@H](C)NC(=O)[C@@H]2C[C@@H](O)CN2C(=O)[C@@H](c2cc([C@H]3CC[C@@H](c4cnc(N5CCC(c6sc7nnc(-c8ccccc8O)cc7c6C)CC5)nc4)CC3)no2)C(C)C)cc1 (single isomer, unassigned) [Compound 65]	A (“A” indicates maximum degradation ≥75%)
> 10	< 50	> 1000	Cc1ncsc1-c1ccc([C@H](C)NC(=O)[C@@H]2C[C@@H](O)CN2C(=O)[C@@H](c2cc(Oc3cnc(N4CCC(c5sc6nnc(-c7ccccc7O)cc6c5C)CC4)nc3)no2)C(C)C)cc1 (single isomer, unassigned) [Compound 51]	A (“A” indicates maximum degradation ≥75%)
> 10	> 75	< 10	Cc1ncsc1-c1ccc([C@H](C)NC(=O)[C@@H]2C[C@@H](O)CN2C(=O)[C@@H](c2cc(-c3cnc(N4CC[C@@H](c5sc6nnc(-c7ccccc7O)cc6c5C)C4)nc3)no2)C(C)C)cc1 [Compound 47, (2S,4R)-4-hydroxy-1-((R)-2-(3-(2-((R)-3-(3-(2-hydroxyphenyl)-5-methylthieno[2,3-c]pyridazin-6-yl)pyrrolidin-1-yl)pyrimidin-5-yl)isoxazol-5-yl)-3-methylbutanoyl)-N-((S)-1-(4-(4-methylthiazol-5-yl)phenyl)ethyl)pyrrolidine-2-carboxamide]	A (“A” indicates maximum degradation ≥75%)

More lines, now with the values behind:

SMILES	DC50 (HiBit-BRM fusion protein) [nM]	Dmax [1] [%]	DC50 [1] [nM]	BRM HiBit Degradation Maximum (%) (HiBit-BRM fusion protein)
Cc1ncsc1-c1ccc([C@H](C)NC(=O)[C@@H]2C[C@@H](O)CN2C(=O)[C@@H](c2cc(-c3ccnc(N4CCC(c5sc6nnc(-c7ccccc7O)cc6c5C)CC4)n3)no2)C(C)C)cc1 [Compound 58, (2S,4R)-4-hydroxy-1-((R)-2-(3-(2-(4-(3-(2-hydroxyphenyl)-5-methylthieno[2,3-c]pyridazin-6-yl)piperidin-1-yl)pyrimidin-4-yl)isoxazol-5-yl)-3-methylbutanoyl)-N-((S)-1-(4-(4-methylthiazol-5-yl)phenyl)ethyl)pyrrolidine-2-carboxamide]	< 10	> 75	> 10	A (“A” indicates maximum degradation ≥75%)
Cc1cc(-c2cc([C@H](C(=O)N3C[C@H](O)C[C@H]3C(=O)N[C@@H](C)c3ccc(-c4scnc4C)cc3)C(C)C)on2)ccc1N1CCC(c2sc3nnc(-c4ccccc4O)cc3c2C)CC1 (single isomer, unassigned) [Compound 3]	> 10	< 50	> 1000	A (“A” indicates maximum degradation ≥75%)
Cc1cc(N2CC[C@H](c3sc4nnc(-c5ccccc5O)cc4c3C)C2)ncc1-c1cc([C@H](C(=O)N2C[C@H](O)C[C@H]2C(=O)N[C@@H](C)c2ccc(-c3scnc3C)cc2)C(C)C)on1 [Compound 97, (2S,4R)-4-hydroxy-1-((R)-2-(3-(6-((S)-3-(3-(2-hydroxyphenyl)-5-methylthieno[2,3-c]pyridazin-6-yl)pyrrolidin-1-yl)-4-methylpyridin-3-yl)isoxazol-5-yl)-3-methylbutanoyl)-N-((S)-1-(4-(4-methylthiazol-5-yl)phenyl)ethyl)pyrrolidine-2-carboxamide]	> 10	< 50		A (“A” indicates maximum degradation ≥75%)
Cc1nc(N2CCC(c3sc4nnc(-c5ccccc5O)cc4c3C)CC2)ccc1-c1cc([C@H](C(=O)N2C[C@H](O)C[C@H]2C(=O)N[C@@H](C)c2ccc(-c3scnc3C)cc2)C(C)C)on1 [Compound 42, (2S,4R)-4-hydroxy-1-((R)-2-(3-(6-(4-(3-(2-hydroxyphenyl)-5-methylthieno[2,3-c]pyridazin-6-yl)piperidin-1-yl)-2-methylpyridin-3-yl)isoxazol-5-yl)-3-methylbutanoyl)-N-((S)-1-(4-(4-methylthiazol-5-yl)phenyl)ethyl)pyrrolidine-2-carboxamide]	< 10	> 50	> 10	A (“A” indicates maximum degradation ≥75%)
COc1nc(N2CCC(c3sc4nnc(-c5ccccc5O)cc4c3C)CC2)ccc1-c1cc([C@H](C(=O)N2C[C@H](O)C[C@H]2C(=O)N[C@@H](C)c2ccc(-c3scnc3C)cc2)C(C)C)on1 [Compound 20, (2S,4R)-4-hydroxy-1-((R)-2-(3-(6-(4-(3-(2-hydroxyphenyl)-5-methylthieno[2,3-c]pyridazin-6-yl)piperidin-1-yl)-2-methoxypyridin-3-yl)isoxazol-5-yl)-3-methylbutanoyl)-N-((S)-1-(4-(4-methylthiazol-5-yl)phenyl)ethyl)pyrrolidine-2-carboxamide]	> 10	< 50	> 1000	A (“A” indicates maximum degradation ≥75%)
Cc1ncsc1-c1ccc([C@H](C)NC(=O)[C@@H]2C[C@@H](O)CN2C(=O)[C@@H](c2cc(-c3cnc(N4CC[C@H](c5sc6nnc(-c7ccccc7O)cc6c5C)C4)nc3)no2)C(C)C)cc1 [Compound 41, (2S,4R)-4-hydroxy-1-((R)-2-(3-(2-((S)-3-(3-(2-hydroxyphenyl)-5-methylthieno[2,3-c]pyridazin-6-yl)pyrrolidin-1-yl)pyrimidin-5-yl)isoxazol-5-yl)-3-methylbutanoyl)-N-((S)-1-(4-(4-methylthiazol-5-yl)phenyl)ethyl)pyrrolidine-2-carboxamide]	< 10	< 50	> 1000	A (“A” indicates maximum degradation ≥75%)
Cc1ncsc1-c1ccc([C@H](C)NC(=O)[C@@H]2C[C@@H](O)CN2C(=O)[C@@H](c2cc(-c3cnc(N4CC5(CC(c6cc7nnc(-c8ccccc8O)cc7s6)C5)C4)nc3)no2)C(C)C)cc1 [Compound 17, (2S,4R)-4-hydroxy-1-((R)-2-(3-(2-(6-(3-(2-hydroxyphenyl)thieno[3,2-c]pyridazin-6-yl)-2-azaspiro[3.3]heptan-2-yl)pyrimidin-5-yl)isoxazol-5-yl)-3-methylbutanoyl)-N-((S)-1-(4-(4-methylthiazol-5-yl)phenyl)ethyl)pyrrolidine-2-carboxamide]	< 10	> 75	> 10	A (“A” indicates maximum degradation ≥75%)
Cc1ncsc1-c1ccc([C@H](C)NC(=O)[C@@H]2C[C@@H](O)CN2C(=O)[C@@H](c2cc(C3CCN(c4ncc(-c5sc6nnc(-c7ccccc7O)cc6c5C)cn4)CC3)no2)C(C)C)cc1 [Compound 32, (2S,4R)-4-hydroxy-1-((R)-2-(3-(1-(5-(3-(2-hydroxyphenyl)-5-methylthieno[2,3-c]pyridazin-6-yl)pyrimidin-2-yl)piperidin-4-yl)isoxazol-5-yl)-3-methylbutanoyl)-N-((S)-1-(4-(4-methylthiazol-5-yl)phenyl)ethyl)pyrrolidine-2-carboxamide]	> 1000	< 50	> 1000	C (“C” indicates maximum degradation <50%)
Cc1ncsc1-c1ccc([C@H](C)NC(=O)[C@@H]2C[C@@H](O)CN2C(=O)[C@@H](c2cc(N3CCC4(CCC(c5sc6nnc(-c7ccccc7O)cc6c5C)CC4)CC3)no2)C(C)C)cc1 [Compound 85, (2S,4R)-4-hydroxy-1-((R)-2-(3-(9-(3-(2-hydroxyphenyl)-5-methylthieno[2,3-c]pyridazin-6-yl)-3-azaspiro[5.5]undecan-3-yl)isoxazol-5-yl)-3-methylbutanoyl)-N-((S)-1-(4-(4-methylthiazol-5-yl)phenyl)ethyl)pyrrolidine-2-carboxamide]	> 10	< 50		A (“A” indicates maximum degradation ≥75%)
